We go through one compound from publication PMC10619133, “The catechol moiety of obafluorin is essential for antibacterial activity” (RSC Chemical Biology, 2023).

SMILES strings stand for the structures.

The nature of data set [1]: Hydrolysis of the β-lactone in HEPES buffer monitored by HPLC. The format is physicochemical. To be noted: for hydrolysis of β-lactone (in words): 30 min, no Fe^3+. As for the experimental part: Hydrolysis of 1–4 was analysed on an Agilent 1290 system fitted with an Agilent LC/MSD MS spectrometer. A Kinetex XB-C18, 100 × 4.6 mm, 5 μM column (Phenomenex) was used with a gradient elution: ACN/0.1% (v/v) FA (H2O) gradient from 5/95 for 0–0.5 min, 5/95 to 98/2 0.5–12 min, 98/2 for 12–13 min, gradient to 5/95 13–13.5 min and 5/95 for 13.5–15 min. The flow rate was 0.6 mL min^−1 and the injection volume of each sample 5 μL. DAD signals were analysed at 270 nm, with a bandwidth of 4 nm. MS were recorded in positive mode using an atmospheric pressure ionisation electrospray (API-ES) ion source with a capillary voltage of 3000 V. The drying gas temperature was 350 °C with a flow rate of 12 L min^−1. The scan parameters were: mass range = 200–1500; fragmentor = 70; gain EMV = 1.0; threshold = 150; step-size = 0.10. Data were analysed with Agilent ChemStation software.
Five solutions of HEPES buffer (111 mM) were prepared at pH 6.0, 6.5, 7.0, 7.5 and 8.0 respectively. A further five solution of HEPES buffer (111 mM) with Fe(NO3)3.9H2O ([…]) were also prepared at pH 6.0, 6.5, 7.0, 7.5, 8.0 respectively. Stock solutions of 1–4 (10 mM) were prepared in DMSO. For each hydrolysis experiment, stock solution of 1–4 (10 μL) was added the HEPES buffer (90 μL) or the HEPES + Fe(NO3)3.9H2O buffer (90 μL), to give final concentrations of HEPES (100 mM), 1–4 (1 mM) and Fe^3+ (0 or 1 mM). The reaction mixtures were shaken using a bench top vortex and left to stand for 30 min, after which the samples were analysed by HPLC using the Analytical HPLC method. All stock solutions of 1–4 were tested at every pH, with and without Fe^3+ and all experiments were repeated in triplicate.

For a further data set, the target named is T1, EcThrRS (Escherichia coli, UniProt P0A8M3).
T1 construct: His6 (N); made in house; host or cells: E. coli NiCo21(DE3)
T1 sequence (P0A8M3 whole entry): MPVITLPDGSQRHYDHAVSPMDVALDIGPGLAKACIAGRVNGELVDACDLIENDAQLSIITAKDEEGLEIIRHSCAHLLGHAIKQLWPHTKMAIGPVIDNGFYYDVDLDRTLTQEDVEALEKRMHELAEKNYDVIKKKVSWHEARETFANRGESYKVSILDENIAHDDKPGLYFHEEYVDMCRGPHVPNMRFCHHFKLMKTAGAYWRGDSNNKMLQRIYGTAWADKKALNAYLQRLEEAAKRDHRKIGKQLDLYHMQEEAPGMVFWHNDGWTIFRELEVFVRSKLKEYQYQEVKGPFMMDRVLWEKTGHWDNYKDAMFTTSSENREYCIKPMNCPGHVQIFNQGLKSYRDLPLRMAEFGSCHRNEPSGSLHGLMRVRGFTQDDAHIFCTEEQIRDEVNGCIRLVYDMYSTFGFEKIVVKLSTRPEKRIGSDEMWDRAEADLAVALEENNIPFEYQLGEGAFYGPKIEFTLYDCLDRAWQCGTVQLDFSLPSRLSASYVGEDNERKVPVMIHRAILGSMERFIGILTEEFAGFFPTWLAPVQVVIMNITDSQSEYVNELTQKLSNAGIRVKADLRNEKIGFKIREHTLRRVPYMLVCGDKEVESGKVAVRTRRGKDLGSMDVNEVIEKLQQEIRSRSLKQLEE
The data set can be described thus: Aminoacylation assay. Format: biochemical, E. coli. To be noted: enzyme 10 nM. The protocol:
To measure the effects of 1–4 on ThrRS canonical tRNA charging activity, an assay modified from that reported by Ruan et al.[53] was used, where active enzyme was incubated with its necessary substrates and its activity measured using ^14C labeled Thr and a liquid scintillation counter. Purified ThrRS protein (10 nM) was pre-incubated with varying concentrations of compounds 1–4 or ACN for 10 min. After pre-incubation, ThrRS samples were added to a master reaction mixture with the final component concentrations of HEPES (100 mM, pH 7.0), ATP (4 mM), MgCl2 (10 mM), L-[U-^14C]threonine (50 μM, Moravek Inc.), and tRNA^Thr (5 μM). This mixture was incubated at room temperature for 10 min, with samples taken at 1, 2.5, 5, and 10 min. At each time point, a 7 μL aliquot was spotted onto a 5% trichloroacetic acid (TCA) presoaked 3 MM Whatman paper (Cytiva) squares (repeated in triplicate). After allowing the spots to dry, the Whatman paper was washed three times with 5% TCA, and once with 95% EtOH. The Whatman paper was dried and the counts on each square of paper analyzed using a Tri-Carb 2910 TR liquid scintillation counter using Hydrofluor Liquid Scintillation Fluid (National Diagnostics). To calculate IC50 values, fractional initial velocities (velocity of inhibited reaction/velocity in the absence of inhibitor) were plotted against the log of 1 concentration and then fitted to eqn (1), using GraphPad Prism.1 [drawing 1]

In general, IC50 refers to the point on the concentration scale where inhibition reaches its midpoint. Take `O=C(N[C@@H]1C(=O)O[C@@H]1Cc1ccc([N+](=O)[O-])cc1)c1cccc(O)c1O` [compound 1, Obafluorin]: the “effect of added Fe^3+ on hydrolysis (in words)” value in data set [1] (Fe^3+ 1 mM, HEPES 100 mM, pH 6.0–8.0, 30 min) is on record as “protected 1 against hydrolysis at all pH values”. Further, the “hydrolysis of β-lactone (in words)” value in data set [1] (pH 6.0, HEPES 100 mM) is reported as “little change”; in data set [1] (pH 8.0, HEPES 100 mM), “majority of 1 in the hydrolysed form”. In addition, the “concentration at which complete inhibition was observed” value on EcThrRS is “around 100 nM”. The IC50 at EcThrRS (10 min preincubation with compound, read-out: IC50) worked out at 35 ± 4 nM.
